Some results are limits rather than exact numbers.

This is an account of results in the Kinase Knowledgebase extract (Sharma et al. 2016).

The target of the assay is PIK3CG (human) (UniProt P48736). As to the kind of experiment: Inhibition of PIK3CG Kinase Activity.
Chain of PIK3CG (human) (P48736 whole entry, looked up): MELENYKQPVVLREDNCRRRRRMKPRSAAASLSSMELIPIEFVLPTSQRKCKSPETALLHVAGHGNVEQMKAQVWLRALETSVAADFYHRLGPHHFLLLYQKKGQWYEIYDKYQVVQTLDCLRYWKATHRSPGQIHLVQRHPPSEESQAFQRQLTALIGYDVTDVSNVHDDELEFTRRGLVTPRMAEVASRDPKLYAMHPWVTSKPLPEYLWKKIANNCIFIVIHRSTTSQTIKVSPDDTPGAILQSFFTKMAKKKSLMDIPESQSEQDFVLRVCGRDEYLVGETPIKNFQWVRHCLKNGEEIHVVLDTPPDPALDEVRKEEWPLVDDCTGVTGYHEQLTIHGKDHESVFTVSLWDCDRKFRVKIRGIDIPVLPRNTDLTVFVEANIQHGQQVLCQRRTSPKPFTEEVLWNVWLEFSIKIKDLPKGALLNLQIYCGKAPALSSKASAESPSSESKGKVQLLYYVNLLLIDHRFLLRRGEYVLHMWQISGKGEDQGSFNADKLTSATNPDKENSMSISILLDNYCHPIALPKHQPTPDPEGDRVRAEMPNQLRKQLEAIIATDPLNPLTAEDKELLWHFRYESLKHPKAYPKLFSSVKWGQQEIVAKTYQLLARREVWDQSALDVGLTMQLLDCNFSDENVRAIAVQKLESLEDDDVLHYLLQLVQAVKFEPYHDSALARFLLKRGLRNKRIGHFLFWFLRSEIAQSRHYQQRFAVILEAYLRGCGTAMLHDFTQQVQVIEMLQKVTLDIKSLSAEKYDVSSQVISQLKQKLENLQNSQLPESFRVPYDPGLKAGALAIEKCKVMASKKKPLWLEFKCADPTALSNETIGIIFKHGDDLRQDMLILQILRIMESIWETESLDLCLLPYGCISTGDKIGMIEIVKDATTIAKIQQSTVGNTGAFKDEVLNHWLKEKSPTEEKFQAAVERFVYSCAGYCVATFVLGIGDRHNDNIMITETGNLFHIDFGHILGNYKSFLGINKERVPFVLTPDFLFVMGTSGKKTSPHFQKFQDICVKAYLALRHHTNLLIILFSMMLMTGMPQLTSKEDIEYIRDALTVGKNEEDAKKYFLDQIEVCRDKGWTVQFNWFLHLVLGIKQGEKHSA
In general, Ki refers to the dissociation constant of the complex between target and ligand, obtained from inhibition or displacement. Low values mean higher affinity, high ones lower affinity. `COc1cc(-c2cc(C)c3c(n2)C(C(C)C)N(c2cnn(CC(F)(F)F)c2)C3=O)cnc1OC` (stereo unspecified) came in with a Ki of under 100 nM.

Take `COc1cncc(-c2cc(C)c3c(n2)CN(c2cnn(CC(F)(F)F)c2)C3=O)c1`: the Ki was under 100 nM.

`COc1cc(-c2ccc3c(n2)CN(c2ccon2)C3=O)cnc1O` gave a Ki of 100 to 490 nM.

Consider `COc1cc(-c2ccc3c(n2)[C@H](N2CCOCC2)N(c2cnn(CC(F)(F)F)c2)C3=O)cnc1OC`, for which the Ki is under 100 nM.

In the case of `COCn1cc(N2Cc3nc(-c4cnc(OC)c(OC)c4)cc(C)c3C2=O)cn1`, the Ki was under 100 nM.

Consider `CCOCCOc1cc(-c2cc(C)c3c(n2)CN(c2cnn(CC(F)(F)F)c2)C3=O)cnc1OC`, for which the Ki is under 100 nM.

`COc1cc(-c2ccc3c(c2)CN(c2cncc(CC#N)c2)C3=O)cnc1OC` gave a Ki of under 100 nM.

The molecule `COc1ncc(-c2ccc3c(n2)[C@@H](C)N(c2cnn(CC(F)(F)F)c2)C3=O)cc1O` displayed a Ki of under 100 nM.

Molecule `CCc1cc(-c2cnc(OC)c(OC)c2)nc2c1C(=O)N(c1cnn(CC(F)(F)F)c1)C2(C)C` gave a Ki of under 100 nM.

`Cc1cc(-c2cncc(OC(F)F)c2)nc2c1C(=O)N(c1cnn(C[C@@H](C)O)c1)C2`: the Ki is under 100 nM.

Consider `COc1cc(-c2ccc3c(n2)CN(c2cnn([C@H](C)C#N)c2)C3=O)cnc1OC`, for which the Ki was under 100 nM.

`COc1cc(-c2ccc3c(n2)CN(c2cnn(CC(C)C)c2)C3=O)cnc1OC` returned a Ki of under 100 nM.

As to `COc1cc(-c2ccc3c(n2)CN(c2ccc(N4CCC(CCO)C4)nc2)C3=O)cnc1OC` (stereo unspecified), the Ki lay in the range of 100 to 490 nM.

On to `Cc1cc(-c2cncc(OC(F)F)c2)nc2c1C(=O)N(c1cn[nH]c1)C2`, for which the Ki was under 100 nM.

The molecule `COc1cc(-c2ccc3c(n2)C(C)N(c2csc(SC)n2)C3=O)cnc1OC` (stereo unspecified) returned a Ki of under 100 nM.

`CCOc1ccc(N2Cc3nc(-c4cnc(OC)c(OC)c4)ccc3C2=O)cn1`: the Ki lay in the range of 100 to 490 nM.

Molecule `COc1cc(-c2ccc3c(n2)CN(c2cnn(CCn4cccn4)c2)C3=O)cnc1OC` registered a Ki of 100 to 490 nM.

In the case of `COc1cc(-c2ccc3c(c2)CN(c2cnn(CC(F)(F)F)c2)C3=O)cnc1OC`, the Ki is under 100 nM.

The molecule `COc1cc(-c2ccc3c(n2)CN(c2ccn(C)n2)C3=O)cnc1OC` came in with a Ki of under 100 nM.

`COc1cc(-c2ccc3c(n2)CN(c2cnn(CC4CCCN4)c2)C3=O)cnc1OC` (stereo unspecified) came in with a Ki of 100 to 490 nM.

For `Cc1cc(-c2cncc(OC(F)F)c2)nc2c1C(=O)N(c1ccnc(OCC(F)F)c1)C2C` (stereo unspecified), the Ki is under 100 nM.

In turn, `COc1cc(-c2cc(C)c3c(n2)C(O)(C2CC2)N(c2cnn(CC(F)(F)F)c2)C3=O)cnc1OC` (stereo unspecified) gave a Ki of under 100 nM.

Consider `COc1cc(-c2cc(C)c3c(n2)C(OC(C)=O)N(c2cnn(CC(F)(F)F)c2)C3=O)cnc1OC` (stereo unspecified), for which the Ki was under 100 nM.

`Cc1cc(-c2cncc(OCC(F)F)c2)nc2c1C(=O)N(c1cnn(CC(F)F)c1)C2(C)C` came in with a Ki of under 100 nM.

`CCCOc1cc(-c2cc(C)c3c(n2)CN(c2ccn(CC)n2)C3=O)cnc1OC`: the Ki is under 100 nM.

`CCn1ccc(N2Cc3nc(-c4cncc(OC(F)F)c4)cc(C)c3C2=O)n1` came in with a Ki of under 100 nM.

With `COCCO[C@H]1c2nc(-c3cnc(OC)c(OC)c3)ccc2C(=O)N1c1cnn(CC(F)(F)F)c1`, the Ki fell in the range of 100 to 490 nM.

For `CCC#CCn1cc(N2Cc3cc(-c4cnc(OC)c(OC)c4)ccc3C2=O)cn1`, the Ki is under 100 nM.

For `COc1cc(-c2ccc3c(n2)CN(c2cncc(C#CCO)c2)C3=O)cnc1OC`, the Ki lay within 100 to 490 nM.

With `COCCOc1ncc(-c2cc(C)c3c(c2)CN(c2cnn(CC(F)(F)F)c2)C3=O)cc1OC`, the Ki is under 100 nM.

As to `Cc1cc(-c2cncc(S(C)(=O)=O)c2)nc2c1C(=O)N(c1cnn(CC(F)(F)F)c1)[C@@H]2C`, the Ki was under 100 nM.

Regarding `COc1cc(-c2cc(C)c3c(n2)C(O[C@H]2CCOC2)N(c2cnn(CC(F)(F)F)c2)C3=O)cnc1OC` (stereo partly specified), the Ki is under 100 nM.

In the case of `COc1cc(-c2ccc3c(n2)CN(c2ccnc(C(C)(C)C#N)c2)C3=O)cnc1OC`, the inhibition constant (Ki) is under 100 nM.

Molecule `CCN(CC)CCn1cc(N2Cc3nc(-c4cnc(OC)c(OC)c4)ccc3C2=O)cn1` came in with a Ki of 100 to 490 nM.

`Cc1cc(-c2cncc(S(=O)(=O)N(C)C)c2)nc2c1C(=O)N(c1ccn([C@H]3CCOC3)n1)C2`: the Ki is under 100 nM.

In turn, `CCn1ncc(N2Cc3cc(-c4cnc(OC)c(OC)c4)ccc3C2=O)n1` gave a Ki of under 100 nM.

`CCn1ccc(N2C(=O)c3c(C)cc(-c4cncc(OCC(F)F)c4)nc3[C@H]2C)n1` returned a Ki of under 100 nM.

On to `CCOc1ncc(-c2cc(C)c3c(n2)C2(CCOCC2)N(c2cnn(CC(F)(F)F)c2)C3=O)cc1OC`, for which the Ki is under 100 nM.

On to `COC(=O)Cc1cncc(N2Cc3nc(-c4cnc(OC)c(OC)c4)ccc3C2=O)c1`, for which the Ki was under 100 nM.

As for `COc1cc(-c2cc(C)c3c(n2)CN(c2ccnc(OC(F)F)c2)C3=O)cnc1OC`, the Ki is under 100 nM.

Regarding `COc1cc(-c2ccc3c(n2)C(C)N(c2cc[nH]n2)C3=O)cnc1OC` (stereo unspecified), the Ki was under 100 nM.

`COc1ccc(-c2ccc3c(n2)CN(c2cnn(CC#N)c2)C3=O)c(C)n1`: the Ki lay in the range of 100 to 490 nM.

In turn, `COc1cc(-c2cc(C)c3c(n2)C(C)N(c2cnn(C[C@H](C)O)c2)C3=O)cnc1OC` (stereo partly specified) showed a Ki of under 100 nM.

Turning to `Cc1cc(-c2cncc(OCC(F)F)c2)nc2c1C(=O)N(c1cnn(CC(F)(F)F)c1)C21CCOCC1`, the Ki is under 100 nM.

With `CCc1ncc(-c2cc(C)c3c(n2)C(C)(C)N(c2cnn(CC(F)(F)F)c2)C3=O)cc1OC`, the Ki is under 100 nM.

Consider `COc1cc(-c2cc(C)c3c(n2)CN(c2cc(O)[nH]n2)C3=O)cnc1OC`, for which the Ki was under 100 nM.

`COc1cc(-c2ccc3c(n2)[C@H](C)N(c2ccn(CC(C)(C)O)n2)C3=O)cnc1OC`: the Ki is under 100 nM.

In turn, `Cc1cc(-c2cncc(OC(F)F)c2)nc2c1C(=O)N(c1cn[nH]c1)[C@@H]2C` displayed a Ki of under 100 nM.

`CCOc1ncc(-c2cc(C)c3c(n2)C(C)(O)N(c2cnn(CC(F)(F)F)c2)C3=O)cc1OC` (stereo unspecified) came in with a Ki of under 100 nM.

`COc1ncc(-c2ccc3c(n2)CN(c2cnn(CC#N)c2)C3=O)c(OC)n1` had a Ki of 100 to 490 nM.

`CCOc1cncc(-c2cc(C)c3c(n2)[C@@H](C)N(c2cnn(CC(F)(F)F)c2)C3=O)c1` had a Ki of under 100 nM.

On to `COCCOc1ncc(-c2cc(C)c3c(n2)CN(c2cnn(CC#N)c2)C3=O)cc1OC`, for which the Ki is under 100 nM.

On to `COc1cc(-c2ccc3c(n2)CN(c2cncc(C(C)(C)O)c2)C3=O)cnc1OC`, for which the Ki was under 100 nM.

Regarding `CC(=O)Nc1cncc(-c2cc(C)c3c(n2)C(C)(C)N(c2cnn(CC(F)(F)F)c2)C3=O)c1`, the Ki is under 100 nM.

On to `CCOc1cncc(-c2cc(C)c3c(n2)[C@@H](OC)N(c2cnn(CC(F)(F)F)c2)C3=O)c1`, for which the Ki is under 100 nM.

The molecule `Cc1cc(-c2cnc(C)c(OCC(F)F)c2)nc2c1C(=O)N(c1ccn([C@H]3CCOC3)n1)C2` yielded a Ki of under 100 nM.

As to `COc1cc(-c2cc(C)c3c(n2)CN(c2ncccn2)C3=O)cnc1OC`, the Ki is 100 to 490 nM.

Turning to `COc1cc(-c2ccc3c(n2)CN(c2ccn(CC#N)n2)C3=O)cnc1OC`, the Ki is under 100 nM.

Turning to `COc1cc(-c2ccc3c(n2)[C@@H](C)N(c2cc[nH]n2)C3=O)cnc1OC`, the Ki is under 100 nM.

Molecule `COc1cc(-c2cc(C)c3c(n2)CN(c2cnn(C[C@H](C)O)c2)C3=O)cnc1OC` returned a Ki of under 100 nM.

For `COc1cc(-c2ccc3c(c2)CN(c2cccc(C(N)=O)c2)C3=O)cnc1OC`, the Ki was under 100 nM.

`COc1cc(-c2ccc3c(c2)CN(c2cnn(CCCO)c2)C3=O)cnc1OC` registered a Ki of 100 to 490 nM.

On to `CCOc1cc(-c2cc(C)c3c(n2)CN(c2cnn(CC)c2)C3=O)cnc1OC`, for which the Ki was under 100 nM.

Take `COc1cc(-c2ccc3c(n2)CN(c2cnn(Cc4cn(C)cn4)c2)C3=O)cnc1OC`: the Ki was under 100 nM.

Molecule `Cc1cc(-c2ccc(N)nc2)nc2c1C(=O)N(c1cnn(CC(F)(F)F)c1)C2` came in with a Ki of under 100 nM.

For `CCOc1ncc(-c2cc(C)c3c(n2)[C@@]2(CCCO2)N(c2cnn(CC(F)(F)F)c2)C3=O)cc1OC`, the inhibition constant Ki was under 100 nM.

In the case of `COc1cc(-c2cc(C)c3c(n2)CN(c2csc(CO)c2)C3=O)cnc1OC`, the Ki was under 100 nM.

`CCn1cc(N2C(=O)c3c(C)cc(-c4cncc(OC(F)F)c4)nc3[C@H]2C)cn1` displayed a Ki of under 100 nM.

Regarding `COc1ncc(-c2cc(C)c3c(n2)C(C)(C)N(c2cnn(CC(F)(F)F)c2)C3=O)cc1C(=O)O`, the Ki is under 100 nM.

As for `CCn1cc(N2Cc3cc(-c4cnc(OC)nc4OC)ccc3C2=O)cn1`, the Ki fell in the range of 100 to 490 nM.

The molecule `CCC1(O)c2nc(-c3cnc(OC)c(OC)c3)cc(C)c2C(=O)N1c1cnn(CC(F)(F)F)c1` (stereo unspecified) displayed a Ki of under 100 nM.

On to `COc1cc(-c2ccc3c(n2)CN(c2ccc(OCC#N)nc2)C3=O)cnc1OC`, for which the Ki lay within 100 to 490 nM.

As for `COc1cncc(N2Cc3nc(-c4cnc(OC)c(OC)c4)ccc3C2=O)c1`, the Ki was under 100 nM.

`COc1cc(-c2ccc3c(n2)CN(c2cnn(Cc4cc(C)on4)c2)C3=O)cnc1OC` came in with a Ki of under 100 nM.

`COc1ccc(-c2cc(C)c3c(n2)CN(c2cnn(C(C)(C)C#N)c2)C3=O)cc1OC` returned a Ki of under 100 nM.

As to `CCOc1cncc(-c2cc(C)c3c(n2)C(C)N(c2cnn(CC(F)(F)F)c2)C3=O)c1` (stereo unspecified), the inhibition constant Ki is under 100 nM.

As to `C=CCNC(=O)c1cncc(-c2cc(C)c3c(n2)C(C)(C)N(c2cnn(CC(F)(F)F)c2)C3=O)c1`, the Ki was under 100 nM.

`Cc1cc(-c2cncc(C(=O)N3CCOCC3)c2)nc2c1C(=O)N(c1cnn(CC(F)(F)F)c1)C2(C)C` gave a Ki of 100 to 490 nM.

For `COc1cncc(-c2cc(C)c3c(n2)[C@@H](C)N(c2cn[nH]c2)C3=O)c1`, the Ki is under 100 nM.

Molecule `COc1cc(-c2ccc3c(n2)CN(c2cnn([C@@H](C)C#N)c2)C3=O)cnc1OC` returned a Ki of under 100 nM.

As to `COCCO[C@@H]1c2nc(-c3cnc(OC)c(OC)c3)ccc2C(=O)N1c1cnn(CC(F)(F)F)c1`, the Ki is under 100 nM.

Molecule `COc1cc(-c2ccc3c(n2)CN(c2ccc(OC(CO)C(F)(F)F)nc2)C3=O)cnc1OC` (stereo unspecified) registered a Ki of under 100 nM.

With `Cc1cc(-c2cncc(C(F)(F)F)c2)nc2c1C(=O)N(c1cnn(CC#N)c1)C2`, the Ki is under 100 nM.

`CCn1cc(N2Cc3cc(-c4cnc(OC)c(OC)c4)ccc3C2=O)cn1` returned a Ki of under 100 nM.

Regarding `Cc1ccc(-c2cc(C)c3c(n2)CN(c2cnn(CC(F)(F)F)c2)C3=O)cc1O`, the Ki is under 100 nM.

Molecule `COc1cc(-c2ccc3c(n2)CN(c2nccs2)C3=O)cnc1OC` displayed a Ki of under 100 nM.
